Laboratory results reported in patent publication US20240091242A1, “LIPIDS THAT REDUCE LUNG DAMAGE, IMPROVE PULMONARY FUNCTION AND DECREASE PRO-INFLAMMATORY CYTOKINES” (Signpath Pharma, Inc., priority 2021, published 2024).
Entries after “also recorded” stand apart in the source; their conditions may differ.

Experiments:
[1] = tested on: murine LPS ARDS model; test: Histopathological evaluation (lung injury score), murine LPS ARDS model; format: in vivo, mouse
Method: (§1) In the ARDS group, mice received Escherichia coli O111:B4 lipopolysaccharide (50 μg in 0.05 mL saline, i.t.), while, in the control group, the animals received an instillation of saline (0.05 mL, i.t.). For intratracheal instillation, mice were slightly anesthetized with isoflurane.
(§2) The lipid SPPCT-800 was dissolved in water (low dose—2 mg/ml; high dose—20 mg/ml). For the 24-hour study, two treatment approaches were used. Mice received a single dose of SPPCT-800 (200 mg/kg, per gavage) as prevention (30 minutes before the LPS instillation), or as a single dose of either 20 mg/kg or 200 mg/kg as therapy (3-hour after the LPS instillation). For the 72-hour study, mice received a total of 8 treatments of SPPCT-800 (200 mg/kg) starting at 3-hour after the LPS instillation. Disease progression in mice was assessed by the evaluation of pulmonary functions, blood oxygen saturation, and body weight change. On the terminal day of each study (24 hours or 72 hours), measurement of cytokine levels in the plasma and BALF, and histopathology evaluations were done.
Histopathological Evaluation. […] A blinded histologist evaluated the general morphology of alveolar septa, lung structure, and inflammation according to the general scoring described and adopted by Matute-Bello, et al.^25, 26
(§3) Statistical Analysis. Results are expressed as means±SEM. […]

[2] = tested on: murine LPS ARDS model; test: Arterial blood oxygen saturation (SpO2), murine LPS ARDS model; format: in vivo, mouse; settings: 72-hour study; compared to untreated LPS group; did not reach statistical significance
Method: as §1
as §2, with “On the terminal day of each study (24 hours or 72 hours), measurement of cytokine levels in the plasma and BALF, and histopathology evaluations were done.” left out
At 0 hour (baseline), 24-hour post-LPS instillation, and 48 and 72-hour post LPS instillation, arterial blood oxygen saturation (SpO2) was recorded on conscious mice. SpO2 was read off of a pulse oximeter (STARR Life Sciences MouseOx Plus system, Oakmont, PA) with a mouse collar probe installed at the carotid level. The saturation values were measured in percentages (%).
as §3

[3] = tested on: murine LPS ARDS model; test: Body weight and lung weight, murine LPS ARDS model; format: in vivo, mouse; settings: for body weight loss: 72-hour study
Method: C57B16/N mice were obtained from Charles River Laboratories (Montreal, Quebec). Male mice, 20-25 g of body weight, were used throughout the studies. Animals were housed in specific pathogen[…]free conditions, and all experiments were approved by Institutional Animal Care and Use Committee (IPST_SL20200402-1). Animal studies are reported in compliance with […] guidelines.
as §1, §2
(§4) Statistical Analysis. Results are expressed as means±SEM. Comparisons were made on normally distributed data using ANOVA, followed by a Fisher post hoc test to assess the difference between LPS+vehicle group with GraphPad Prism Software version 8.0 (San Diego, CA, USA). Differences were considered statistically significant when P values were less than 0.05. (* Shown difference versus Sham animals and # shown difference versus LPS+Vehicle group. * Means P<0.05, ** P<0.01, *** P<0.001 while # means P<0.05, ##P<0.01 and ###P<0.001).

[4] = tested on: murine LPS ARDS model; test: Respiratory functions by whole-body plethysmograph, murine LPS ARDS model; format: in vivo, mouse; settings: P<0.001
Method: as §1, §2
Respiratory Functions. All mice were introduced to the plethysmograph chamber environment. After the acclimatization period, the functional respiratory parameters were assessed by the whole-body plethysmograph (VivoFlow, SCIREQ, Montreal, Canada) at 0 hour (baseline), at 24-hour post-LPS instillation, and at 48 and 72-hour post-LPS instillation. Each measurement was performed with the mouse placed alone in an unrestrained whole-body plethysmography (WBP) chamber to measure respiratory functions. The WBP trace allowed us to determine specific information regarding the breathing pattern, and to derive important information associated with the development of inflammation. The functional respiratory parameters analyzed included respiratory rate, PenH (pulmonary congestion index), and inspiratory/expiratory time measurements. PenH, was used as an index of edema, inflammation and congestion (broncho-restriction).^24
as §4

[5] = Detectable activity after a single dose; format: in vivo
[6] = Toxicity (non-toxic dose); settings: in vivo

Structure (SMILES): CCCCCCCCCCCCCC(=O)OCC(COP(=O)([O-])OCC(COC(=O)CCC)OC(=O)CCC)OC(=O)CCCCCCCCCCCCC.CCCCCCCCCCCCCC(=O)OCC(COP(=O)([O-])OCC(COC(=O)CCC)OC(=O)CCC)OC(=O)CCCCCCCCCCCCC.[Mg+2] (stereo not shown) [SPPCT-800]
- lung injury score ([1]; at 24 hours, given 30 minutes prior to LPS as a preventative, P<0.01): 0.3
- lung injury score ([1]; at 72 hours, multi-dose treatment group): 2.2
- SpO2 levels [2]: maintained
- body weight loss versus LPS (in words) ([3]; 48 hours and 72 hours after LPS treatment): significantly reduced
- wet lung weight/dry lung ratio ([3]; 72 hours): decreased
- lung index (lung weight/body weight×100) ([3]; 72 hours, P<0.05): reduced; also recorded: significantly decreased
- lung weight ([3]; animals sacrificed at 72 hours, P=0.1100): tended to reduce
- body weight loss ([3]; at 24 hours after LPS): 14%
- body weight loss ([3]; at 48 hours after LPS, P<0.05 vs untreated LPS group): 14%
- body weight loss ([3]; at 72 hours after LPS, P<0.05 vs untreated LPS group): 8%
- inspiratory time ([4]; at 24 hours): Significant reductions
- pulmonary congestion index (PenH) ([4]; at 24 hours): Significant reductions
- expiratory time ([4]; at 48 hours): significant reductions
- pulmonary congestion index (PenH) ([4]; at 48 hours): significant reductions
- single dose with detectable activity [5]: 1 mg/kg
- non-toxic dose [6]: up to 800 mg/kg per day
